# Results taken from patent publication US20220016101A1 (ACADIA Pharmaceuticals Inc., priority 2018, published 2022).
# Test system: patients with MDD and an inadequate response to an SSRI or SNRI
# Assay: Massachusetts General Hospital Sexual Functioning Index (MGH-SFI), Study ACP-103-042
# Type: in vivo, human
# Source text: “Massachusetts General Hospital Sexual Functioning Index (MGH-SFI)” is described, for instance, in Labbate and Lare, 2001, Psychother Psychosom. 70(4):221-225. This is a patient facing questionnaire that quantifies sexual dysfunction into 5 functional domains (“interest in sex,” “sexual arousal,” “ability to achieve orgasm,” “ability to maintain erection” (males only), and “sexual satisfaction”). Patients rate each item using a 6-point scale ranging from 1 (good function) to 6 (poor function). High scores indicate poor sexual functioning. […] The determination of the subject's status and eligibility for randomization in Stage 2 was made in a double-blind manner. […] Sexual functioning was assessed using the Massachusetts General Hospital Sexual Functioning Index or MGH-SFI (Labbate and Lare, 2001, Psychother Psychosom. 70(4):221-225). This is a patient facing questionnaire that quantifies sexual dysfunction into 5 functional domains (“interest in sex,” “sexual arousal,” “ability to achieve orgasm,” “ability to maintain erection” [malesonly], and “sexual satisfaction”). Patients rate each item using a 6-point scale ranging from 1 (good function) to 6 (poor function). The time frame for this scale is the past month. This scale was administered at baseline and Week 5 in both stages of the study. High scores indicate poor sexual functioning. In ACP-103-042 the mean scores for MGH-SFI at Baseline was calculated over all 5 domains for males and the 4 domains for females. For MGH-SFI (follow-up version) at Study Weeks 5 and 10, the mean was calculated in the same way as MGH-SFI at Baseline. […] Tables 10-27 summarize the detailed data of MGH-SFI individual items of the overall study group (Tables 10-15), the subgroup of age of <=50 (Tables 16-21) and the subgroup of age of >50 (Table 21-26). In Tables 9-26, ANCOVA=analysis of covariance; OC=observed cases; LSM=least squares mean; CI=confidence interval; SD=standard deviation; SE=standard error. Stage 1: Baseline=Study Week 0, Week 5=Study Week 5; Stage 2: Baseline=Study Week 5, Week 5=Study Weeks 10. LSM from the stage-specific ANCOVA analysis with the change from baseline as the outcome, treatment group as a factor, and the corresponding Baseline value as a covariate. 2-sided p-value for treatment difference from the stage-specific ANCOVA analysis. An treatment effect size (Cohen's d) is calculated using the formula: Effect Size=Least Square mean difference between PIM and PBO/SD. The corresponding 95% confidence interval for an effect size is calculated based on the theoretical probability distribution of the effect size. […] Tables 10-15 and 28-38 summarize the detailed data of MGH-SFI individual items of the overall study group (Tables 10-15), the female subgroup (Tables 33-37) and the male subgroup (Table 38-43). An treatment effect size (Cohen's d) is calculated using the formula: Effect Size=Least Square mean difference between PIM and PBO/SD. The corresponding 95% confidence interval for an effect size is calculated based on the theoretical probability distribution of the effect size. In Tables 10-15 and 28-38, ANCOVA=analysis of covariance; OC=observed cases; LSM=least squares mean; CI=confidence interval; SD=standard deviation; SE=standard error. Stage 1: Baseline=Study Week 0, Week 5=Study Week 5; Stage 2: Baseline=Study Week 5, Week 5=Study Weeks 10. LSM from the stage-specific ANCOVA analysis with the change from baseline as the outcome, treatment group as a factor, and the corresponding Baseline value as a covariate. 2-sided p-value for treatment difference from the stage-specific ANCOVA analysis. An treatment effect size (Cohen's d) is calculated using the formula: Effect Size=Least Square mean difference between PIM and PBO/SD. The corresponding 95% confidence interval for an effect size is calculated based on the theoretical probability distribution of the effect size.
# [1] = male subgroup, Stage 2, PIM 34 mg
# [2] = male subgroup, Stage 2, PIM 34 mg vs placebo, change from baseline to Week 5
# [3] = male subgroup, Stage 2, PIM 34 mg, Week 5
# [4] = subgroup <=50 years old, Stage 1, PIM 34 mg
structure (smiles),measurement,setting,value
"CC(C)COc1ccc(CNC(=O)N(Cc2ccc(F)cc2)C2CCN(C)CC2)cc1 [pimavanserin, N-(4-Fluorophenylmethyl)-N-(1-methylpiperidin-4-yl)-N′-(4-(2-methylpropyloxy)phenylmethyl)carbamide]","MGH-SFI Item 02: Ability to Get Sexually Aroused or Excited, Change from Baseline to Week 5, Median",[1],−1.0
same,"MGH-SFI Item 03: Ability to Achieve Orgasm, Change from Baseline to Week 5, Mean (SE)",[1],−0.8 (0.36)
same,"MGH-SFI Item 03: Ability to Achieve Orgasm, Change from Baseline to Week 5, Median",[1],0.0
same,"MGH-SFI Item 04: (Men) Ability to Get and Maintain an Erection, Change from Baseline to Week 5, Mean (SE)",[1],−1.0 (0.41)
same,"MGH-SFI Item 04: (Men) Ability to Get and Maintain an Erection, Change from Baseline to Week 5, Median",[1],−1.0
same,"MGH-SFI Item 05: Overall Sexual Satisfaction, Change from Baseline to Week 5, Mean (SE)",[1],−1.4 (0.50)
same,"MGH-SFI Item 05: Overall Sexual Satisfaction, Change from Baseline to Week 5, Median",[1],−1.0
same,"MGH-SFI Item 06: Overall Improvement Since Last Medication Change, Effect Size (Cohen's d)","male subgroup, Stage 2, PIM 34 mg vs placebo, Week 5",0.405
same,"MGH-SFI Item 02: Ability to Get Sexually Aroused or Excited, Effect Size (Cohen's d)",[2],−0.154
same,"MGH-SFI Item 03: Ability to Achieve Orgasm, Effect Size (Cohen's d)",[2],0.497
same,"MGH-SFI Item 04: (Men) Ability to Get and Maintain an Erection, Effect Size (Cohen's d)",[2],0.701
same,"MGH-SFI Item 05: Overall Sexual Satisfaction, Effect Size (Cohen's d)",[2],0.511
same,"MGH-SFI Item 02: Ability to Get Sexually Aroused or Excited, Week 5, Mean (SE)",[3],3.6 (0.47)
same,"MGH-SFI Item 02: Ability to Get Sexually Aroused or Excited, Week 5, Median",[3],4.0
same,"MGH-SFI Item 03: Ability to Achieve Orgasm, Week 5, Mean (SE)",[3],3.6 (0.56)
same,"MGH-SFI Item 03: Ability to Achieve Orgasm, Week 5, Median",[3],4.0
same,"MGH-SFI Item 04: (Men) Ability to Get and Maintain an Erection, Week 5, Mean (SE)",[3],3.1 (0.54)
same,"MGH-SFI Item 04: (Men) Ability to Get and Maintain an Erection, Week 5, Median",[3],4.0
same,"MGH-SFI Item 05: Overall Sexual Satisfaction, Week 5, Mean (SE)",[3],3.0 (0.53)
same,"MGH-SFI Item 05: Overall Sexual Satisfaction, Week 5, Median",[3],3.0
same,"MGH-SFI Item 06: Overall Improvement Since Last Medication Change, Week 5, Mean (SE)",[3],3.7 (0.53)
same,"MGH-SFI Item 06: Overall Improvement Since Last Medication Change, Week 5, Median",[3],4.0
same,"MGH-SFI 01: Interest in Sex, Effect Size (Cohen's d)","male subgroup, Stage 2, positive = pimavanserin better than placebo",0.174
same,"MGH-SFI Items 1, 2, 3, and 5 mean change from baseline to Week 5 vs placebo",overall study group,significantly greater
same,"MGH-SFI 04: (Men) Ability to Get and Maintain an Erection, Change from Baseline to Week 5 Mean (SE)",[4],−1.7 (1.45)
same,"MGH-SFI 04: (Men) Ability to Get and Maintain an Erection, Change from Baseline to Week 5 Median",[4],−2.0
same,"MGH-SFI 04: (Men) Ability to Get and Maintain an Erection, Week 5 Mean (SE)",[4],2.3 (0.67)
same,"MGH-SFI 04: (Men) Ability to Get and Maintain an Erection, Week 5 Median",[4],3.0
same,"MGH-SFI 05: Overall Sexual Satisfaction, Change from Baseline to Week 5 Mean (SE)",[4],−0.5 (0.35)
same,"MGH-SFI 05: Overall Sexual Satisfaction, Change from Baseline to Week 5 Median",[4],0.0
same,"MGH-SFI 05: Overall Sexual Satisfaction, Week 5 Mean (SE)",[4],3.6 (0.43)
same,"MGH-SFI 05: Overall Sexual Satisfaction, Week 5 Median",[4],4.0
same,"MGH-SFI 06: Overall Improvement Since Last Medication Change, Week 5 Mean (SE)",[4],3.0 (0.24)
same,"MGH-SFI 06: Overall Improvement Since Last Medication Change, Week 5 Median",[4],3.0
same,"MGH-SFI 04: (Men) Ability to Get and Maintain an Erection, Effect Size (Cohen's d)","subgroup <=50 years old, Stage 1, PIM 34 mg vs placebo",0.877
